Data reported in US20130165520A1, “Hybrid Molecule Having Mixed Retinoic Acid Receptor Agonism and Histone Deacetylase Inhibitory Properties” (priority 2010, published 2013).

Experiments:
SW-620 = SW-620 (Colon); 48 h
A498 = A498 (Renal); 48 h
SF-539 = test: cells; conditions: Homo sapiens, SF-539, 48 h
[1] = test system: NCI-60 panel of human tumor cell lines; test: NCI-60 in vitro cancer screen (SRB), whole panel; assay type: cell-based; conditions: all cell lines, read-out: GC-50 values, range over all cell lines
Experimental: Both RARs and HDACs are ubiquitously expressed in cell lines and tissue. It was therefore surmised that hybrid 3 could display cytotoxic activities in a wide variety of cell lines.
The human tumor cell lines of the cancer screening panel are grown in RPMI 1640 medium containing 5% fetal bovine serum and 2 mM L-glutamine. For a typical screening experiment, cells are inoculated into 96 well microtiter plates in 100 μL at plating densities ranging from 5,000 to 40,000 cells/well depending on the doubling time of individual cell lines. After cell inoculation, the microtiter plates are incubated at 37° C., 5% CO2, 95% air and 100% relative humidity for 24 h prior to addition of experimental drugs. […]
Following drug addition, the plates are incubated for an additional 48 h at 37° C., 5% CO2, 95% air, and 100% relative humidity. […] Bound stain is subsequently solubilized with 10 mM trizma base, and the absorbance is read on an automated plate reader at a wavelength of 515 nm. […] Using the absorbance measurements [time zero, (Tz), control growth, (C), and test growth in the presence of drug at the five concentration levels (Ti)], the percentage growth is calculated at each of the drug concentration levels. Percentage growth inhibition is calculated as: [(Ti-Tz)/(C-Tz)]×100 for concentrations for which Ti>/=Tz; and [(Ti-Tz)/Tz]×100 for concentrations for which Ti<Tz. […]

UACC-257 = UACC-257 (Melanoma); 48 h
HCC-2998 = HCC-2998 (Colon); 48 h
HCT-116 = test: cells; conditions: Homo sapiens, HCT-116, 48 h
HOP-92 = HOP-92 (Non-Small cell lung cancer); 48 h
NCI/ADR-RES = test: cells; conditions: Homo sapiens, 48 h
UACC-62 = test: cells; conditions: Homo sapiens, UACC-62, 48 h
MDA-MB-231/ATCC = MDA-MB-231/ATCC (Breast); 48 h
MCF7 = MCF7 (Breast); 48 h
purified human HDAC3 = purified human HDAC3 (Homo sapiens, UniProt O15379); test: Standard fluorescence HDAC assay; assay type: biochemical; conditions: purified human enzyme, read-out: IC50 against HDAC3
Sequence of purified human HDAC3 (O15379 whole entry): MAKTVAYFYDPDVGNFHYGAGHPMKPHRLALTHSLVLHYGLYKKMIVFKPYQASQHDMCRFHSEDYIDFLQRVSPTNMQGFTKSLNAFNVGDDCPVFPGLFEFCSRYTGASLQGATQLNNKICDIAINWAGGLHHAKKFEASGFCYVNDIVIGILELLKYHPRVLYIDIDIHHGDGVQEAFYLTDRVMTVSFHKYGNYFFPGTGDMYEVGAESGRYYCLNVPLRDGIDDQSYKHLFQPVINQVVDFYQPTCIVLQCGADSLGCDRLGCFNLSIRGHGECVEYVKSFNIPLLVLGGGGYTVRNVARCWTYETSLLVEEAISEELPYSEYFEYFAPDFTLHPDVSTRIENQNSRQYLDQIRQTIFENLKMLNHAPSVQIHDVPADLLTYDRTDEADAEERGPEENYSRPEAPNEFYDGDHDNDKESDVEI
Sequence of purified human HDAC3 (Q9Y618 395-489 partner limits assumed): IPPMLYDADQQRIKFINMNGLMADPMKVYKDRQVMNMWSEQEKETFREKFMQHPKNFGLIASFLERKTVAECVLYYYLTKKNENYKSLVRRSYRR

[2] = test system: RAR target genes in MDA-MB-231 cell line; test: RT-qPCR analysis of RAR and HDACi target genes; assay type: cell-based
Text: The agonist activity of 3 through its effects on RAR target genes was subsequently analyzed (FIG. 3).

MOLT-4 = test: cells; conditions: Homo sapiens, MOLT-4, 48 h
SN12C = test: cells; conditions: Homo sapiens, 48 h
KM12 = test: cells; conditions: Homo sapiens, KM12, 48 h
UO-31 = UO-31 (Renal); 48 h
TK-10 = TK-10 (Renal); 48 h

CC1(C)CCC(C)(C)c2cc(-c3ccc4cc(C(=O)NO)ccc4c3)ccc21 [hybrid 3]
TGI (SW-620): 1.94 µM | TGI (A498): 3.8 µM | GI50 (SF-539): 0.699 µM | CC50 (SF-539; read-out: LC50): 30.9 µM | IC50 [1]: 0.302 to 4.3 µM | TGI (UACC-257): 7.34 µM | TGI (HCC-2998): 2.51 µM | GI50 (HCT-116): 0.424 µM | CC50 (HCT-116; read-out: LC50): 4.03 µM | TGI (HOP-92): 6.35 µM | GI50 (NCI/ADR-RES): 0.502 µM | CC50 (NCI/ADR-RES; read-out: LC50): 5.34 µM | GI50 (UACC-62): 0.512 µM | CC50 (UACC-62; read-out: LC50): 5.17 µM | TGI (MDA-MB-231/ATCC): 3.59 µM | TGI (MCF7): 1.68 µM | IC50 (purified human HDAC3): 5 µM | regulation of HDACi-regulated genes RARB1 and CyclinD1 ([2]; MDA-MB-231): follow similar regulation | induction of RAR target genes (RT-qPCR) ([2]; MDA-MB-231 cell line): clear induction of RARB2 and DHRS3 | GI50 (MOLT-4): 0.371 µM | CC50 (MOLT-4; read-out: LC50): 7.8 µM | GI50 (SN12C): 1.05 µM | CC50 (SN12C; read-out: LC50): 5.34 µM | GI50 (KM12): 0.616 µM | CC50 (KM12; read-out: LC50): 4.61 µM | TGI (UO-31): 1.61 µM | TGI (TK-10): 4.97 µM
